Among the data in US12351580B2, “NLRP3 modulators” (Innate Tumor Immunity, Inc., priority 2017, dated 2025) are EC50 values, retold here.

The target in one experiment is T1, hNLRP3 (Homo sapiens, UniProt Q96P20).
T1 construct: THP-1 cells were purchased from the American Type Culture Collection; host or cells: THP-1 cells, PMA-differentiated
The experiment in a line: Measurement of IL-1β production in PMA-differentiated THP-1 cells (hNLRP3 agonist; ELISA, alternative and hTRF procedures). The experiment is classed as cell-based. Here is the method:
Measurement of IL-1β production in PMA-differentiated THP-1 cells THP-1 cells were purchased from the American Type Culture Collection and sub-cultured according to instructions from the supplier. Prior to experiments, cells were cultured in RPMI 1640 containing 10% heat inactivated FBS, penicillin (100 units/ml) and streptomycin (100 μg/ml), and maintained in log phase prior to experimental setup. Prior to the experiment THP-1 were treated with PMA (Phorbol 12-myristate 13-acetate) ([…]) for 24 hours. The day of the experiment the media was removed and attaching cells were treated with trypsin for 2 minutes, cells were then collected, washed with PBS (phosphate buffer saline), spin down, resuspended in 2% heat inactivated FBS with RPMI at a concentration of 1×10^6 cells/ml, and 100 μl was plated in a 96 well plate. Compounds were dissolved in dimethyl sulfoxide (DMSO) and added to the culture medium to achieve desired concentration (e.g. 100, 30, 10, 3, 1, 0.3 or 0.1 μM). Cells were incubated with compounds for 4 hours. Cell free supernatant was collected and the production of […] was evaluated by ELISA. A vehicle only control was run concurrently with each experiment. Final DMSO concentration was 1%.
Measurement of IL-1β Production in PMA-Differentiated THP-1 Cells (Alternative Procedure)
THP-1 cells were purchased from the American Type Culture Collection and sub-cultured according to instructions from the supplier. Prior to experiments, cells were cultured in RPMI 1640 containing 10% heat inactivated FBS, penicillin (100 units/ml), streptomycin (100 μg/ml), HEPES (10 mM) and sodium pyruvate (1 mM) and maintained in log phase prior to experimental setup. Prior to the experiment, THP-1 cells were treated with PMA (Phorbol 12-myristate 13-acetate) (20 μg/ml) overnight. The day of the experiment, the media was removed and attached cells were treated with trypsin for 2 minutes, cells were then collected, washed with PBS (phosphate buffer saline), pelleted by centrifugation and resuspended in 2% heat inactivated FBS with RPMI at a concentration of 50,000 cells/well in a 384 well plate. Cell free supernatant was collected and the production of IL-1β was evaluated by ELISA. Compounds were dissolved in dimethyl sulfoxide (DMSO) and added to the culture medium to achieve desired concentration (e.g. 100, 30, 10, 3, 1, 0.3 or 0.1 μM). Cells were incubated with compounds for 2 hours. A vehicle only control was run concurrently with each experiment. Final DMSO concentration was 1%.
Measurement of IL-1β Production—hTRF Protocol (Second Alternative Procedure)
Serial dilutions of compounds in DMSO were added to low volume 384 well plates at 100 nl/well using an ECHO 550 acoustic dispenser (Labcyte) to achieve final starting concentration of 10 μM in assay.
THP-1 cells in RPMI (Gibco, 11875) media with 10% FBS at a density of 1×10^6 cell/ml in a T175 flask were treated with a final concentration of phorbol 12-myristate 13-acetate (PMA) (Sigma, P1585) of 50 ng/ml overnight at 37° C. at 5% CO2 for differentiation. Cells were harvested the next day after rinsing well with dPBS using 0.5% trypsin. A cell solution was prepared of 1×10^6 cells/ml for 50,000 cells in 50 μl/well in RPMI media with 2% FBS. Cells were plated using a multichannel pipette onto the compound dilutions in Greiner, 384 well, black clear bottom tissue culture treated plates (781090). The plates were incubated in 37° C. incubator at 5% CO2 for 2 hours.
After the 2 hour incubation, the cell plates were spun in the centrifuge for 5 minutes at 1200 rpm. Using the Felix (CyBio), 8 μl of the supernatant was transferred to 384 well, low volume, white proxy plates. (Perkin Elmer, 6008230). A human IL1beta hTRF kit was used to analyze the supernatant (CISBIO, 62HIL1BPEG). The kit instructions were followed for preparing the IL1Beta standard curve and then the antibodies from the kit were diluted 1:40 rather than 1:20 as kit instructed.

The target in another experiment is T2, TLR7 (Homo sapiens, UniProt Q9NYK1).
T2 construct: host or cells: HEK-Blue cells (human HEK) co-expressing TLR7 and an NF-kB/AP1-inducible SEAP reporter
T2 sequence (Q9NYK1 27-1049): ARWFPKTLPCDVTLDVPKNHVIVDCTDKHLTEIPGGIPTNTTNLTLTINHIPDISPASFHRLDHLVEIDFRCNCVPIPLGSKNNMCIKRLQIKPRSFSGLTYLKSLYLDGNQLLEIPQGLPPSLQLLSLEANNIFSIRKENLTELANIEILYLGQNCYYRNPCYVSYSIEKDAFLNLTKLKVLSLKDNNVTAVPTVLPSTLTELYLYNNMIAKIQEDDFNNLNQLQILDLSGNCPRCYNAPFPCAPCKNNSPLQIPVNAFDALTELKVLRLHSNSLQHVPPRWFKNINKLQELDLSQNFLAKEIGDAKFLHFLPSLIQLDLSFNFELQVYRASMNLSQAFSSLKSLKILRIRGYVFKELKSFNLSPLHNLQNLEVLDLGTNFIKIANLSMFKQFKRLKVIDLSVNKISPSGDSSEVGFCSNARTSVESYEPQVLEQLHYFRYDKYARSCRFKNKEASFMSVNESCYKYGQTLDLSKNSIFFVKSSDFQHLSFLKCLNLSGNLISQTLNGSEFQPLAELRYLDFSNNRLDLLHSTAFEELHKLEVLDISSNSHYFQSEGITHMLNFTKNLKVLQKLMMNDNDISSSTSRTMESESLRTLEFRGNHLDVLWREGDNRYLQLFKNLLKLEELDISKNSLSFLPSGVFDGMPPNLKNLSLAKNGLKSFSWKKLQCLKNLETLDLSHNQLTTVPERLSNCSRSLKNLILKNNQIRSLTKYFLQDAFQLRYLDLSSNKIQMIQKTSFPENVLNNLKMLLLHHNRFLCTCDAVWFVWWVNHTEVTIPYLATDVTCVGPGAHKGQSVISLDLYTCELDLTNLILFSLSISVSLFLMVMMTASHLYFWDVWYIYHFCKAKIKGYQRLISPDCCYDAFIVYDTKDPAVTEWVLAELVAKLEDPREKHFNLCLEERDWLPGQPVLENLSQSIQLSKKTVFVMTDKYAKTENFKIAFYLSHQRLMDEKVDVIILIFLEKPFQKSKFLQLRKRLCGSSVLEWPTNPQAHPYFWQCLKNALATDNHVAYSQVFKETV
The experiment in a line: In vitro human TLR7 binding reporter assay (HEK-Blue, NF-kB/AP1-inducible SEAP). Type of experiment: cell-based. As to conditions: activity range symbols. The method, then: In Vitro Human TLR7 and TLR8 Binding Reporter Assays
Logarithmically-growing human HEK-Blue cells co-expressing a TLR7 or TLR8 gene and a NF-kB/AP1-inducible SEAP (secreted embryonic alkaline phosphatase; Invivogen, San Diego, CA) reporter gene are added to individual wells of a 384-well plate (15,000 cells per 20 μL per well) and maintained for 24 h at 37° C., 5% CO2. Test compounds or DMSO are distributed to separate wells the next day using acoustic liquid handling technology (100 nL per well) and cells are subsequently incubated for 18 h at 37° C., 5% CO2. Cellular SEAP production is measured using an Envision plate reader instrument thirty minutes after adding freshly-made Quanti-Blue reagent (prepared by following manufacturer instructions; Invivogen, San Diego, CA) to the HEK-Blue TLR Nf-kB-SEAP cell reactions. All EC50 values (half-maximal effective concentration) are determined using proprietary data analysis software.

Molecules are shown by their SMILES.

T1 sequence (Q96P20 whole entry): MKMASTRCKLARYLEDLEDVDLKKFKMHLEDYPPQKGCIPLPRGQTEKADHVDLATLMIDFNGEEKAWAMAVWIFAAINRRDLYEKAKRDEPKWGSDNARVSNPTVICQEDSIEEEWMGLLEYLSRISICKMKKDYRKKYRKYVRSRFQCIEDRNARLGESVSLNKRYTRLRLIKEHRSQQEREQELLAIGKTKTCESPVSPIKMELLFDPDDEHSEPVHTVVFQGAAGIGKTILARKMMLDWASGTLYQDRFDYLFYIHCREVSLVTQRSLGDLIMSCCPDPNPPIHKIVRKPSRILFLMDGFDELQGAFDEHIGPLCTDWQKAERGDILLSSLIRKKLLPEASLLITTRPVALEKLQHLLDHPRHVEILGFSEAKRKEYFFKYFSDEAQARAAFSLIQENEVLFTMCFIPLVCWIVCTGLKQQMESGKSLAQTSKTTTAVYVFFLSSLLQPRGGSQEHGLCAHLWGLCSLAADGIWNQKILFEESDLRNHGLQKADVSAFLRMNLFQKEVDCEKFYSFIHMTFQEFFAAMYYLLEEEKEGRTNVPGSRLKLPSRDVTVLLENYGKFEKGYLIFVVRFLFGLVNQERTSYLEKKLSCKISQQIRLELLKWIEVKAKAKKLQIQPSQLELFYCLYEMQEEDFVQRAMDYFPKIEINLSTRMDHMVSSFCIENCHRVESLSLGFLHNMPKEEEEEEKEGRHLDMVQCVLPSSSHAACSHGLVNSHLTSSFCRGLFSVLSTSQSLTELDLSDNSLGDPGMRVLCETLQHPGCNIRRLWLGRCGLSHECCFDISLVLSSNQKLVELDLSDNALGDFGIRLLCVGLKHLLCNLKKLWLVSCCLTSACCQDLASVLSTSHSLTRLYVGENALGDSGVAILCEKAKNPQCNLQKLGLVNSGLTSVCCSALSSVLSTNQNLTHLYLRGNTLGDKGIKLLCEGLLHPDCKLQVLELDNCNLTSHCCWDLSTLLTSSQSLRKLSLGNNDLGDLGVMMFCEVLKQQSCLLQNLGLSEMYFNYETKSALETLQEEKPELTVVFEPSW

The EC50 is the concentration that produces a half-maximal response. The low end stands for an effect from little substance, the high end for a need for much substance. At hNLRP3, `Nc1nc2cc(-c3cc[nH]n3)ccc2c2[nH]c(CNC(=O)C3CC3)nc12` [Compound 105] yielded a half-maximal effective concentration (EC50) of 0.69 µM. This counts as sub-micromolar.

`CC(C)C(=O)NCc1nc2c(N)nc3cc(-c4cc[nH]n4)ccc3c2[nH]1` [Compound 107] showed an EC50 at hNLRP3 of 0.64 µM. Same read-out and setting: with `CC(=O)NCc1nc2c(N)nc3cc(-c4cc[nH]n4)ccc3c2[nH]1` [Compound 113, N-((4-Amino-7-(1H-pyrazol-3-yl)-1H-imidazo[4,5-c]quinolin-2-yl)methyl)acetamide] the figure was 0.56 µM; with `CS(=O)(=O)NCc1nc2c(N)nc3cc(-c4cc[nH]n4)ccc3c2[nH]1` [Compound 116], 1.16 µM; with `CCN(Cc1nc2c(N)nc3cc(-c4cc[nH]n4)ccc3c2[nH]1)C(=O)c1ccccc1` [Compound 126], 2.1 µM.

As for `CCN(Cc1nc2c(N)nc3cc(-c4cc[nH]n4)ccc3c2[nH]1)C(=O)CO` [Compound 133], at hNLRP3, the response was half-maximal at 3.5 µM (EC50).

For `CCN(Cc1nc2c(N)nc3cc(-n4nccn4)ccc3c2[nH]1)C(=O)OC(C)(C)C` [Compound 135], the EC50 at hNLRP3 was found to be 4.6 µM. This EC50 and that of the compound before are within 1.5-fold of each other. Still for that read-out and setting: the result for `Nc1nc2cc(-c3cc[nH]n3)ccc2c2[nH]c(CN3CC(c4ccccc4)CC3=O)nc12` (stereo not drawn) [Compound 137] reads 5.4 µM. With `CCN(C(C)=O)C(C)c1nc2c(N)nc3cc(Br)ccc3c2[nH]1` (stereo not drawn) [Compound 182, N-[1-(4-amino-7-bromo-1H-imidazo[4,5-c]quinolin-2-yl)ethyl]-N-ethylacetamide], the EC50 at hNLRP3 was 5.9 µM; on TLR7, above 100 µM.

In turn, `COc1ccc(-c2ccc3c(c2)nc(N)c2nc(CN4CCCC4=O)[nH]c23)cc1` [Compound 292, 1-[[4-amino-7-(4-methoxyphenyl)-1H-imidazo[4,5-c]quinolin-2-yl]methyl]pyrrolidin-2-one] had an EC50 on hNLRP3 of 4.48 µM. As for `COc1ccc(-c2ccc3c(c2)nc(N)c2nc(CN4CCCC4=O)[nH]c23)cn1` [Compound 304, 1-[[4-amino-7-(6-methoxypyridin-3-yl)-1H-imidazo[4,5-c]quinolin-2-yl]methyl]pyrrolidin-2-one], it took 36.4 µM to reach a half-maximal effect at hNLRP3 (EC50). Against the preceding compound, the EC50 is about 8.1-fold higher.

For `Nc1nc2cc(-c3cccnc3F)ccc2c2[nH]c(CN3CCCC3=O)nc12` [Compound 307, 1-[[4-amino-7-(2-fluoropyridin-3-yl)-1H-imidazo[4,5-c]quinolin-2-yl]methyl]pyrrolidin-2-one], on hNLRP3, the EC50 came to 12.3 µM. Still for that read-out and setting: with `Nc1nc2cc(-c3ccsc3)ccc2c2[nH]c(CN3CCCC3=O)nc12` [Compound 308, 1-[(4-amino-7-thiophen-3-yl-1H-imidazo[4,5-c]quinolin-2-yl)methyl]pyrrolidin-2-one] the figure was 1.06 µM.

The compound `Nc1nc2ccccc2c2c1nc(CN1CCCC1=O)n2CCCC(=O)N1CCSCC1` [Compound 345] had an EC50 at hNLRP3 of 64 µM. On the same count and under the same terms, the result for `CN1CCN(Cc2nc3c(N)nc4cc(-c5cc[nH]n5)ccc4c3[nH]2)C(=O)C1` [Compound 350] reads 10 µM. In the case of `Nc1nc2cc(-c3cc[nH]n3)ccc2c2[nH]c(CN3CCOCC3=O)nc12` [Compound 351], the EC50 on hNLRP3 was 2.17 µM. The same measure, in the same setting: with `Nc1nc2cc(-c3cc[nH]n3)ccc2c2[nH]c(CN3CCCCC3=O)nc12` [Compound 352] the figure was 2.23 µM; with `CC(C)NCc1nc2c(N)nc3cc(-c4cc[nH]n4)ccc3c2[nH]1` [Compound 421], 0.24 µM. As for `CCN(Cc1nc2c(N)nc3cc(-c4cccs4)ccc3c2[nH]1)C(=O)OC(C)(C)C` [Compound 424], the EC50 is 0.79 µM at hNLRP3 and above 100 µM at TLR7. For `CCN(Cc1nc2c(N)nc3cc(-c4cccs4)ccc3c2[nH]1)C(C)=O` [Compound 425], in that order: 0.44 µM and above 100 µM. With `Nc1nc2cc(-c3cccnc3)ccc2c2[nH]c(CN3CCCCC3=O)nc12` [Compound 426], the EC50 on hNLRP3 was 4.3 µM; on TLR7, above 100 µM.

As for `Nc1nc2cc(Br)ccc2c2[nH]c(CN3CCCCC3=O)nc12` [Compound 428], the results for the EC50 on hNLRP3 and on TLR7 were 5.1 µM and above 100 µM, respectively. Consider `Nc1nc2cc(-n3cccn3)ccc2c2[nH]c(CN3CCOC3=O)nc12` [Compound 429], for which the EC50 on hNLRP3 is 5.8 µM; at TLR7, above 100 µM. Turning to `CN1CCN(Cc2nc3c(N)nc4cc(-c5cc[nH]n5)ccc4c3[nH]2)C(=O)C1` [Compound 432], the EC50 on hNLRP3 is around 10 µM. Still for that read-out and setting: the result for `CC(C)(C)OC(=O)N1CCN(Cc2nc3c(N)nc4cc(-c5cccnc5)ccc4c3[nH]2)C(=O)C1` [Compound 433] reads 11.5 µM. On to `CCCn1c(CN(CC)C(C)=O)nc2c(N)nc3cc(Br)ccc3c21` [Compound 435], for which the EC50 at hNLRP3 is 19.3 µM; at TLR7 it was above 100 µM.
